Test system: Meloidogyne incognita egg/larvae suspension
Experiment: Meloidogyne test
Format: in vivo
Details: 20 ppm active compound, lettuce in sand, nematicidal action by gall formation
Method: To produce a suitable preparation of active compound, 1 part by weight of active compound is mixed with the stated amounts of solvent and emulsifier, and the concentrate is diluted with water to the desired concentration.
Containers are filled with sand, solution of active compound, Meloidogyne incognita egg/larvae suspension and lettuce seeds. The lettuce seeds germinate and the plants develop. On the roots, galls are formed.
After the desired period of time, the nematicidal action is determined in % by gall formation. 100% means that no galls were found; 0% means that the number of galls on the treated plants corresponds to that of the untreated control.

| SMILES | Efficacy in % after 7 d [%] |
| --- | --- |
| O=C(Nc1ncccc1O)c1ccc(C2CCC(c3c(F)cccc3F)=N2)cc1 (stereo not shown) [drawing 34] | 95 |
| Cc1cc2oc(-c3ccc(C4CCC(c5c(F)cccc5F)=N4)cc3)nc2c(C)c1Cl (stereo not shown) | 98 |
| Fc1cccc(F)c1C1=NC(c2ccc(-c3nc4cc(Br)ccc4o3)cc2)CC1 (stereo not shown) [drawing 38] | 80 |
| Fc1cccc(F)c1C1=NC(c2ccc(-c3nc4ccccc4s3)cc2)CC1 (stereo not shown) [drawing 35] | 80 |
| CNS(=O)(=O)c1cc2oc(-c3ccc(C4CCC(c5c(F)cccc5F)=N4)cc3)nc2cc1Cl (stereo not shown) | 80 |

Test system: Heliothis armigera caterpillars
Experiment: Heliothis armigera test
Format: in vivo
Details: 100 ppm active compound, soya bean shoots dipped, kill after 7 d
Method: Solvent: 7 parts by weight of dimethylformamide
Emulsifier: 2 parts by weight of alkylaryl polyglycol ether
(§1) To produce a suitable preparation of active compound, 1 part by weight of active compound is mixed with the stated amounts of solvent and emulsifier, and the concentrate is diluted with emulsifier-containing water to the desired concentration.
Soya bean shoots (Glycine max) are treated by being dipped into the preparation of active compound of the desired concentration and are populated with Heliothis armigera caterpillars while the leaves are still moist.
(§2) After the desired period of time, the kill in % is determined. 100% means that all caterpillars have been killed; 0% means that none of the caterpillars have been killed.

| SMILES | Efficacy in % after 7 d [%] |
| --- | --- |
| Fc1cccc(F)c1C1=NC(c2ccc(-c3nc4cc(Br)ccc4o3)cc2)CC1 (stereo not shown) [drawing 33] | 100 |
| Fc1cccc(F)c1C1=NC(c2ccc(-c3nc4cc(C(F)(F)F)ccc4s3)cc2)CC1 (stereo not shown) [drawing 32] | 100 |
| Fc1cc(-c2nc3cc(OC(F)(F)F)ccc3o2)ccc1C1CCC(c2c(F)cccc2F)=N1 (stereo not shown) [drawing 30] | 100 |
| Fc1cccc(F)c1C1=NC(c2ccc(-c3nc4cc(-c5ccccc5)ccc4o3)cc2)CC1 (stereo not shown) [drawing 29] | 100 |
| Fc1cccc(F)c1C1=NC(c2ccc(-c3nc4cc(OC(F)(F)F)ccc4o3)cc2)CC1 (stereo not shown) [drawing 28] | 100 |
| Fc1cccc(F)c1C1=NC(c2ccc(-c3nc4cc(C(F)(F)F)c(Cl)cc4o3)cc2)CC1 (stereo not shown) [drawing 27] | 100 |
| Fc1cc(-c2nc3cc(Cl)ccc3o2)ccc1C1CCC(c2c(F)cccc2F)=N1 (stereo not shown) [drawing 31] | 100 |

Test system: larvae of the mustard beetle (Phaedon cochleariae)
Experiment: Phaedon larvae test
Format: in vivo
Details: 100 ppm active compound, cabbage leaves dipped, kill after 7 d
Method: Phaedon Larvae Test [table] To produce a suitable preparation of active compound, 1 part by weight of active compound is mixed with the stated amounts of solvent and emulsifier, and the concentrate is diluted with emulsifier-containing water to the desired concentration. Cabbage leaves (Brassica oleracea) are treated by being dipped into the preparation of active compound of the desired concentration and are populated with larvae of the mustard beetle (Phaedon cochleariae) while the leaves are still moist.

| SMILES | Efficacy in % after 7 d [%] |
| --- | --- |
| Fc1cccc(F)c1C1=NC(c2ccc(-c3nc4cc(C(F)(F)F)c(Cl)cc4o3)cc2)CC1 (stereo not shown) [drawing 41] | 100 |
| Fc1cc(-c2nc3cc(OC(F)(F)F)ccc3o2)ccc1C1CCC(c2c(F)cccc2F)=N1 (stereo not shown) [drawing 44] | 100 |
| Fc1cc(-c2nc3cc(-c4ccccc4)ccc3o2)ccc1C1CCC(c2c(F)cccc2F)=N1 (stereo not shown) [drawing 45] | 100 |
| Fc1cccc(F)c1C1=NC(c2ccc(-c3nc4cc(OC(F)(F)F)ccc4o3)cc2)CC1 (stereo not shown) [drawing 42] | 100 |
| Fc1cccc(F)c1C1=NC(c2ccc(-c3nc4cc(-c5ccccc5)ccc4o3)cc2)CC1 (stereo not shown) [drawing 43] | 100 |

Same assay, conditions: 500 ppm active compound, cabbage leaves dipped, kill after 7 d

| SMILES | Efficacy in % after 7 d [%] |
| --- | --- |
| CC(C)(C)c1ccc2oc(-c3ccc(C4CCC(c5c(F)cccc5F)=N4)cc3)nc2c1 (stereo not shown) [drawing 39] | 100 |
| Fc1cccc(F)c1C1=NC(c2ccc(-c3nc4cc(SC(F)(F)F)ccc4o3)cc2)CC1 (stereo not shown) [drawing 40] | 100 |

Test system: caterpillars of the armyworm (Spodoptera exigua)
Experiment: Spodoptera exigua test
Format: in vivo
Details: 100 ppm active compound, cabbage leaves dipped, kill after 7 d
Method: as §1
Cabbage leaves (Brassica oleracea) are treated by being dipped into the preparation of active compound of the desired concentration and are populated with caterpillars of the armyworm (Spodoptera exigua) while the leaves are still moist.
as §2

| SMILES | Efficacy in % after 7 d [%] |
| --- | --- |
| Fc1cc(-c2nc3cc(-c4ccccc4)ccc3o2)ccc1C1CCC(c2c(F)cccc2F)=N1 (stereo not shown) [drawing 47] | 100 |

Test system: greenhouse red spider mite (Tetranychus urticae)
Experiment: Tetranychus test (OP-resistant/dip treatment)
Format: in vivo
Details: 168 h, 100 ppm active compound, bean plants dipped, all stages, after 7 d, read-out: Efficacy in % after 7 d
Method: Tetranychus Test (OP-Resistant/Dip Treatment)
as §1
Bean plants (Phaseolus vulgaris) which are heavily infested by all stages of the greenhouse red spider mite (Tetranychus urticae) are treated by being dipped into a preparation of active compound of the desired, concentration.
After the desired period of time, the effect in % is determined. 100% means that all spider mites have been killed; 0% means that none of the spider mites have been killed.

| SMILES | pest or weed control at 100 ppm [%] |
| --- | --- |
| Fc1cc(-c2nc3cc(Cl)ccc3o2)ccc1C1CCC(c2c(F)cccc2F)=N1 (stereo not shown) [drawing 67] | 95 |
| Fc1cc(-c2nc3ccccc3o2)ccc1C1CCC(c2c(F)cccc2F)=N1 (stereo not shown) | 95 |
| Fc1cccc(F)c1C1=NC(c2ccc(-c3nc4cc(C(F)(F)F)c(Cl)cc4o3)cc2)CC1 (stereo not shown) [drawing 63] | 98 |
| Fc1cc(-c2nc3cc(-c4ccccc4)ccc3o2)ccc1C1CCC(c2c(F)cccc2F)=N1 (stereo not shown) [drawing 68] | 99 |
| CN(C)S(=O)(=O)c1cc2oc(-c3ccc(C4CCC(c5c(F)cccc5F)=N4)cc3)nc2cc1Cl (stereo not shown) [drawing 64] | 90 |
| Fc1cccc(F)c1C1=NC(c2ccc(-c3nc4cc(C(F)(F)F)ccc4s3)cc2)CC1 (stereo not shown) [drawing 69] | 90 |
| Fc1cccc(F)c1C1=NC(c2ccc(-c3nc4ccccc4s3)cc2)CC1 (stereo not shown) [drawing 65] | 99 |
| Fc1cccc(F)c1C1=NC(c2ccc(-c3nc4cc(C(F)(F)F)cc(Cl)c4o3)cc2)CC1 (stereo not shown) | 95 |
| Fc1cccc(F)c1C1=NC(c2ccc(-c3nc4cc(C(F)(F)F)cc(C(F)(F)F)c4o3)cc2)CC1 (stereo not shown) | 100 |

Test system: not listed separately
Experiment: log P by HPLC (reversed-phase C18), acidic range pH 2.3
Format: physicochemical
Details: reversed-phase C18 HPLC column; pH 2.3, 0.1% aqueous phosphoric acid/acetonitrile, 43° C.
Method: The log P values given in the Tables and Preparation Examples above are determined in accordance with EEC Directive 79/831 Annex V.A8 by HPLC (High Performance Liquid Chromatography) using a reversed-phase column (C 18). Temperature: 43° C.
The determination in the acidic range is carried out at pH 2.3 using the mobile phases 0.1% aqueous phosphoric acid and acetonitrile; linear gradient from 10% acetonitrile to 90% acetonitrile. In the Tables, the values are marked a).
Calibration is carried out using unbranched alkan-2-ones (of 3 to 16 carbon atoms) with known log P values (determination of the log P values by retention times using linear interpolation between two successive alkanones).

| SMILES | chromatographic logP |
| --- | --- |
| O=C(Nc1ncccc1O)c1ccc(C2CCC(c3c(F)cccc3F)=N2)cc1 (stereo not shown) [II-4, 4-[5-(2,6-difluorophenyl)-3,4-dihydro-2H-pyrrol-2-yl]-N-(3-hydroxy-2-pyridinyl)benzamide] | 1.16 |
| Fc1ccc2nc(-c3ccc(C4CCC(c5c(F)cccc5F)=N4)cc3)oc2c1 (stereo not shown) [Example 5, 2-{4-[5-(2,6-difluorophenyl)-3,4-dihydro-2H-pyrrol-2-yl]phenyl}-6-fluoro-1,3-benzoxazole] | 3.53 |
| CC(C)(C)c1ccc(O)c(NC(=O)c2ccc(C3CCC(c4c(F)cccc4F)=N3)cc2)c1 (stereo not shown) [II-1, N-(5-tert-btyl-2-hydroxyphenyl)-4-[5-(2,6-difluorohenyl)-3,4-dihydro-2H-pyrrol-2-yl]benzamide] | 3.22 |
| Fc1cccc(F)c1C1=NC(c2ccc(-c3nc4ccccc4o3)cc2)CC1 (stereo not shown) [Example 3, 2-{4-[5-(2,6-difluorophenyl)-3,4-dihydro-2H-pyrrol-2-yl]phenyl}-1,3-benzoxazole] | 3.22 |
| Fc1cccc(F)c1C1=NC(c2ccc(-c3nc4ncccc4o3)cc2)CC1 (stereo not shown) [Example 4, 2-{4-[5-(2,6-difluorophenyl)-3,4-dihydro-2H-pyrrol-2-yl]-phenyl}[1,3]oxazole[4,5-b]pyridine] | 2.06 |
| CC(C)(C)c1ccc2oc(-c3ccc(C4CCC(c5c(F)cccc5F)=N4)cc3)nc2c1 (stereo not shown) [Example 1, 5-tert-butyl-2-{4-[5-(2,6-difluorophenyl)-3,4-dihydro-2H-pyrrol-2-yl]phenyl}-1,3-benzoxazole] | 5.11 |
| Fc1cccc(F)c1C1=NC(c2ccc(-c3nc4cc(SC(F)(F)F)ccc4o3)cc2)CC1 (stereo not shown) [Example 2] | 4.98 |

Test system: caterpillars of the armyworm (Spodoptera frugiperda)
Experiment: Spodoptera frugiperda test
Format: in vivo
Details: 168 h, 100 ppm active compound, cabbage leaves dipped, kill after 7 d, read-out: Efficacy in % after 7 d
Method: Spodoptera Frugiperda Test
as §1
Cabbage leaves (Brassica oleracea) are treated by being dipped into the preparation of active compound of the desired concentration and are populated with caterpillars of the armyworm (Spodoptera frugiperda) while the leaves are still moist.
as §2

| SMILES | pest or weed control at 100 ppm [%] |
| --- | --- |
| Fc1cccc(F)c1C1=NC(c2ccc(-c3nc4cc(Cl)cc(Cl)c4o3)cc2)CC1 (stereo not shown) | 100 |
| Fc1cccc(F)c1C1=NC(c2ccc(-c3nc4cc(Cl)ccc4o3)cc2)CC1 (stereo not shown) | 100 |
| Fc1cccc(F)c1C1=NC(c2ccc(-c3nc4cc(C(F)(F)F)ccc4s3)cc2)CC1 (stereo not shown) [drawing 60] | 100 |
| Fc1cc(-c2nc3cc(Cl)ccc3o2)ccc1C1CCC(c2c(F)cccc2F)=N1 (stereo not shown) [drawing 59] | 100 |
| CN(C)S(=O)(=O)c1cc2oc(-c3ccc(C4CCC(c5c(F)cccc5F)=N4)cc3)nc2cc1Cl (stereo not shown) [drawing 58] | 100 |
| Cc1ccccc1C1=NC(c2ccc(-c3nc4ccccc4o3)cc2)CC1 (stereo not shown) | 100 |

Same assay, conditions: 168 h, 500 ppm active compound, cabbage leaves dipped, kill after 7 d, read-out: Efficacy in % after 7 d

| SMILES | pest or weed control at 500 ppm [%] |
| --- | --- |
| Fc1cccc(F)c1C1=NC(c2ccc(-c3nc4ncccc4o3)cc2)CC1 (stereo not shown) [drawing 49] | 100 |
| Fc1ccc2nc(-c3ccc(C4CCC(c5c(F)cccc5F)=N4)cc3)oc2c1 (stereo not shown) [drawing 54] | 100 |
| Fc1cccc(F)c1C1=NC(c2ccc(-c3nc4cc(SC(F)(F)F)ccc4o3)cc2)CC1 (stereo not shown) [drawing 52] | 100 |
| CC(C)(C)c1ccc(O)c(NC(=O)c2ccc(C3CCC(c4c(F)cccc4F)=N3)cc2)c1 (stereo not shown) [drawing 55] | 100 |
| CC(C)(C)c1ccc2oc(-c3ccc(C4CCC(c5c(F)cccc5F)=N4)cc3)nc2c1 (stereo not shown) [drawing 50] | 100 |

Same assay, conditions: in Brassica oleracea, 168 h, read-out: Efficacy in % after 7 d

| SMILES | pest or weed control at 500 ppm [%] |
| --- | --- |
| O=[N+]([O-])c1cc2oc(-c3ccc(C4CCC(c5c(F)cccc5F)=N4)cc3)nc2cc1Cl (stereo not shown) | 100 |
| Fc1cccc(F)c1C1=NC(c2ccc(-c3nc4ccccc4o3)cc2)CC1 (stereo not shown) [drawing 48] | 100 |

— patent publication US20050124497A1, “Delta1-pyrrolines and their use as pest control agents” (priority 2002, published 2005)
